Patent US20040121946A9, “Inducing cellular immune responses to her2/neu using peptide and nucleic acid compositions” (priority 2002, published 2004)
Read-outs that look alike come from different tables or passages of the source. Where a SMILES comes first, the peptide text is derived from it. Where no end group is shown, it is not given here. [ ]: non-standard residue; d: D form. Abu = CC[C@H](N)C(=O)O

Columns and labels:
HLA-A*0206 = HLA-A*0206 (Homo sapiens, UniProt P04439, D140Y/D185E/D98H/E176V/E277Q/F33Y/G131W/G231S/I119V/I121R/I166T/I218V/L300P/L318F/N151K/N90K/P208A/P217A/Q86G/Q94H/R138H/R169H/T345S); format: binding
HLA-A*0201 = HLA-A*0201 (Homo sapiens, UniProt P04439, D140Y/D185E/D98H/E176V/E277Q/G131W/G231S/I119V/I121R/I166T/I218V/L300P/L318F/N151K/N90K/P208A/P217A/Q86G/Q94H/R138H/R169H/T345S); format: binding
HLA-A*0203 = HLA-A*0203 (Homo sapiens, UniProt P04439, A173T/D140Y/D185E/D98H/E277Q/G131W/G231S/I119V/I121R/I166T/I218V/L180W/L300P/L318F/N151K/N90K/P208A/P217A/Q86G/Q94H/R138H/R169H/T345S); format: binding
[1] = test system: .221A2.1 cell line, peptide-loaded target; test: Primary in vitro CTL induction, peptide-specific recognition (51Cr release / in situ IFNγ ELISA); format: cell-based, human; settings: normal donors, peptide-pulsed targets
Description: The colon adenocarcinoma cell lines SW403 and HT-29 were obtained from the American Type Culture Collection (ATCC) (Rockville, Md.). The cell lines that were obtained from ATCC were maintained under the culture conditions recommended by the supplier. […] The colon cancer cells were treated with 100U/ml IFNγ (Genzyme) for 48 hours at 37° C. before use as targets in the ^51Cr release and in situ IFNγ assays.
The monocytes were purified by plating 10×10^6 PBMC/well in a 6-well plate. After 2 hours at 37° C., the non-adherent cells were removed by gently shaking the plates and aspirating the supernatants. The wells were washed a total of three times with 3 ml RPMI to remove most of the non-adherent and loosely adherent cells. Three ml of complete medium containing 50 ng/ml of GM-CSF and 1,000 U/ml of IL-4 were then added to each well. DC were used for CTL induction cultures following 7 days of culture.
Induction of CTL with DC and Peptide: CD8+ T-cells were isolated by positive selection with Dynal immunomagnetic beads (Dynabeads® M-450) and the detacha-bead® reagent. Typically about 200-250×10^6 PBMC were processed to obtain 24×10^6 CD8^+ T-cells (enough for a 48-well plate culture). Briefly, the PBMCs were thawed in RPMI with 30 μg/ml DNAse, washed once with PBS containing 1% human AB serum and resuspended in PBS/1% AB serum at a concentration of 20×10^6cells/ml. The magnetic beads were washed 3 times with PBS/AB serum, added to the cells (140 μl beads/20×10^6 cells) and incubated for 1 hour at 4° C. with continuous mixing. The beads and cells were washed 4× with PBS/AB serum to remove the nonadherent cells and resuspended at 100×10^6 cells/ml (based on the original cell number) in PBS/AB serum containing 100 μl/ml detacha-bead® reagent and 30 μg/ml DNAse. The mixture is incubated for 1 hour at room temperature with continuous mixing. The beads were washed again with PBS/AB/DNAse to collect the CD8+ T-cells. The DC were collected and centrifuged at 1300 rpm for 5-7 minutes, washed once with PBS with 1% BSA, counted and pulsed with 40 μg/ml of peptide at a cell concentration of 1-2×10^6/ml in the presence of 3 μg/ml β2-microglobulin for 4 hours at 20° C. The DC were then irradiated (4,200 rads), washed 1 time with medium and counted again.
Setting up induction cultures: 0.25 ml cytokine-generated DC (@1×10^5 cells/ml) were co-cultured with 0.25 ml of CD8+ T-cells (@2×10^6 cell/ml) in each well of a 48-well plate in the presence of 10 ng/ml of IL-7. rHuman IL10 was added the next day at a final concentration of 10 ng/ml and rhuman IL2 was added 48 hours later at 10 IU/ml.
Restimulation of the induction cultures with peptide-pulsed adherent cells: Seven and fourteen days after the primary induction the cells were restimulated with peptide-pulsed adherent cells. The PBMCS were thawed and washed twice with RPMI and DNAse. The cells were resuspended at 5×10^6 cells/ml and irradiated at ˜4200 rads. The PBMCs were plated at 2×10^6 in 0.5 ml complete medium per well and incubated for 2 hours at 37° C. The plates were washed twice with RPMI by tapping the plate gently to remove the nonadherent cells and the adherent cells pulsed with 10 μg/ml of peptide in the presence of 3 μg/ml β2 microglobulin in 0.25 ml RPMI/5%AB per well for 2 hours at 37° C. Peptide solution from each well was aspirated and the wells were washed once with RPMI. Most of the media was aspirated from the induction cultures (CD8+ cells) and brought to 0.5 ml with fresh media. […]

[2] = test system: tumor targets that endogenously express HER2/neu (colon adenocarcinoma cell lines SW403 and HT-29); test: Primary in vitro CTL induction, recognition of wild-type peptide and endogenous tumor targets (51Cr release / in situ IFNγ ELISA); format: cell-based, human; settings: in vitro, expanded positive cultures
HLA-A*2402 = HLA-A*2402 (Homo sapiens, UniProt P04439, D101N/D140Y/D185E/E176V/E190D/F33S/G103R/G107R/I119L/I121M/I306V/K335N/L105A/L180Q/L300P/N151K/N90K/Q86E/Q94H/R106L/R138H/R89G/T104I/T345S/V100E/W191G/Y123F); format: binding; settings: HLA-A24 motif-bearing peptides, Table XXVI
Description: The corresponding peptide sequence are then synthesized and tested for binding to the appropriate allele-specific HLA molecule, HLA-A1 or HLA-24.

HLA-A*0101 = HLA-A*0101 (Homo sapiens, UniProt P04439, A114D/A174V/A182V/D101N/D185E/E176A/E190D/L180R/Q94H/R68K/S129P/T187R/V100A/V91M/W191G); format: binding; settings: Table XXV, HLA-A1 motif-bearing peptides
[3] = HLA-A2 supermotif-bearing peptides, Table XXVII
[4] = Table XXII, A2 supermotif peptides and analogs

CC[C@H](C)[C@H](NC(=O)[C@H](CC(C)C)NC(=O)[C@@H](N)CO)C(=O)N[C@@H](CO)C(=O)N[C@@H](C)C(=O)N[C@H](C(=O)N[C@H](C(=O)NCC(=O)N[C@H](C(=O)O)C(C)C)C(C)C)C(C)C gave an IC50 (HLA-A*0206; Table XXVII) of 0.02 µM, an IC50 (HLA-A*0201; [3]) of 0.0071 µM and an IC50 (HLA-A*0203; Table XXVII) of 0.016 µM.
H-VLLGVVFGV-OH [Her2/neu.665L2V9] was tested, and the “induction of peptide-specific CTL” value [1] was “strong peptide-specific CTL response was observed” and the “recognition of wild-type peptide and of tumor targets endogenously expressing HER2/neu by induced CTL” value [2] was “Peptide-specific CTL activity was maintained in some of the cultures, but no corresponding endogenous recognition was observed”.
In the case of CC[C@H](NC(=O)[C@H](CCCCN)NC(=O)[C@@H](NC(=O)[C@H](CCSC)NC(=O)[C@@H](NC(=O)[C@H](CC(C)C)NC(=O)[C@@H](N)Cc1ccc(O)cc1)[C@@H](C)CC)C(C)C)C(=O)N[C@@H](Cc1c[nH]c2ccccc12)C(=O)N[C@@H](CCSC)C(=O)N[C@H](C(=O)O)C(C)C [Her2/neu.952L2B7V10] (H-YLIMVK[Abu]WMV-OH), the IC50 (HLA-A*0206; [4]) is reported as 0.011 µM, the IC50 (HLA-A*0201; [4]) is reported as 0.0072 µM and the IC50 (HLA-A*0203; [4]) is reported as 0.077 µM. The “induction of peptide-specific CTL” value [1] was “induced peptide-specific CTLs in at least 2 donors” and the “recognition of wild-type peptide and of tumor targets endogenously expressing HER2/neu by induced CTL” value [2] was “no wild-type peptide or endogenous recognition was observed”.
Compound TYLPTNASL has an IC50 (HLA-A*2402) of 0.316 µM.
VLIQRNPQV gave an IC50 (HLA-A*0206; Table XXVII) of 0.385 µM, an IC50 (HLA-A*0201) of 0.055 µM and an IC50 (HLA-A*0203; Table XXVII) of 0.135 µM.
Compound RWGLLLAL [RWGLLLAL] has an IC50 (HLA-A*2402) of 0.48 µM.
With CC(C)[C@H](NC(=O)[C@H](CS)NC(=O)[C@@H](NC(=O)[C@H](C)N)[C@@H](C)O)C(=O)N[C@H](C(=O)N[C@@H](C)C(=O)N[C@@H](CS)C(=O)N1CCC[C@H]1C(=O)N[C@@H](Cc1ccc(O)cc1)C(=O)O)[C@@H](C)O [Her2/neu.293.T2] the IC50 (HLA-A*0101; read-out: A*[…]) was 0.049 µM.
With CC(C)C[C@H](NC(=O)[C@H](CO)NC(=O)CNC(=O)[C@H](Cc1ccccc1)NC(=O)[C@@H](NC(=O)[C@@H](N)CCCCN)C(C)C)C(=O)N[C@@H](C)C(=O)N[C@@H](Cc1ccccc1)C(=O)N[C@H](C(=O)O)C(C)C [Position V2V9] the “induction of peptide-specific CTL” value [1] was “induced peptide-specific CTLs” and the “recognition of wild-type peptide and of tumor targets endogenously expressing HER2/neu by induced CTL” value [2] was “also recognized the target tumor cells”.
With CC(C)[C@H](NC(=O)[C@H](CS)NC(=O)[C@H](CCC(N)=O)NC(=O)[C@H](CC(=O)O)NC(=O)[C@H](C)NC(=O)[C@@H](N)CCC(=O)O)C(=O)N[C@@H](C)C(=O)N[C@@H](CS)C(=O)N[C@@H](C)C(=O)N[C@@H](Cc1c[nH]cn1)C(=O)N[C@@H](Cc1ccc(O)cc1)C(=O)O [Her2/neu.580] the IC50 (HLA-A*0101) was 0.25 µM.
With CC(C)C[C@H](NC(=O)[C@H](CO)NC(=O)CNC(=O)[C@H](Cc1ccccc1)NC(=O)[C@H](CC(C)C)NC(=O)[C@@H](N)CCCCN)C(=O)N[C@@H](C)C(=O)N[C@@H](Cc1ccccc1)C(=O)N[C@H](C(=O)O)C(C)C [Her2/neu.369L2V9] the “induction of peptide-specific CTL” value [1] was “induced peptide-specific CTLs” and the “recognition of wild-type peptide and of tumor targets endogenously expressing HER2/neu by induced CTL” value [2] was “also recognized the target tumor cells”.
CC[C@H](NC(=O)[C@@H](NC(=O)[C@H](C)N)C(C)C)C(=O)N[C@@H](CCCNC(=N)N)C(=O)N[C@@H](Cc1c[nH]c2ccccc12)C(=O)NCC(=O)N[C@@H](CC(C)C)C(=O)N[C@@H](CC(C)C)C(=O)N[C@H](C(=O)O)C(C)C [Her2/neu.5V2B3V9] (H-AV[Abu]RWGLLV-OH) was tested, and the IC50 (HLA-A*0206; [4]) was 2.18 µM, the IC50 (HLA-A*0201; [4]) was 10 µM and the IC50 (HLA-A*0203; [4]) was 0.141 µM.
In the case of CC[C@H](NC(=O)[C@H](CC(C)C)NC(=O)[C@H](C)N)C(=O)N[C@@H](CCCNC(=N)N)C(=O)N[C@@H](Cc1c[nH]c2ccccc12)C(=O)NCC(=O)N[C@@H](CC(C)C)C(=O)N[C@@H](CC(C)C)C(=O)N[C@H](C(=O)O)C(C)C [Her2neu.5B3V9] (H-AL[Abu]RWGLLV-OH), the IC50 (HLA-A*0201; [4]) is reported as 0.018 µM, the “induction of peptide-specific CTL” value [1] is reported as “induced peptide-specific CTLs in at least 2 donors” and the “recognition of wild-type peptide and of tumor targets endogenously expressing HER2/neu by induced CTL” value [2] is reported as “no wild-type peptide or endogenous recognition was observed”.
CC[C@H](C)[C@H](NC(=O)[C@H](CC(C)C)NC(=O)[C@@H](N)Cc1ccc(O)cc1)C(=O)N[C@@H](CCSC)C(=O)N[C@H](C(=O)N[C@@H](CCCCN)C(=O)N[C@@H](CS)C(=O)N[C@@H](Cc1c[nH]c2ccccc12)C(=O)N[C@@H](CCSC)C(=O)N[C@H](C(=O)O)C(C)C)C(C)C showed an IC50 (HLA-A*0206; Table XXVII) of 0.018 µM, an IC50 (HLA-A*0201; [3]) of 0.013 µM and an IC50 (HLA-A*0203; Table XXVII) of 0.116 µM.
In the case of CC[C@H](NC(=O)[C@H](CCSC)NC(=O)[C@H](C)N)C(=O)N[C@@H](CCCNC(=N)N)C(=O)N[C@@H](Cc1c[nH]c2ccccc12)C(=O)NCC(=O)N[C@@H](CC(C)C)C(=O)N[C@@H](CC(C)C)C(=O)N[C@H](C(=O)O)C(C)C [Her2/neu.5M2B3V9] (H-AM[Abu]RWGLLV-OH), the IC50 (HLA-A*0206; [4]) is reported as 0.726 µM, the IC50 (HLA-A*0201; [4]) is reported as 0.036 µM and the IC50 (HLA-A*0203; [4]) is reported as 0.016 µM.
